This is an account of results in US6056958A, “Method of treatment of arterial and venous thromboembolic disorders” (Dupont Pharmaceuticals, priority 1997, dated 2000).

pIC50: −log10 of the molar value. Non-standard residues stand in square brackets, D forms with d. Residues, ends and D or L forms follow the SMILES beside them. 3Amb = NCc1cccc(C(=O)O)c1

One assay deals with T1, αv /β3 receptor (Homo sapiens, UniProt P05106+P06756).
T1 construct: The αv /β3 receptor was isolated from human placental extracts prepared using octylglucoside; from tissue
T1 sequence (P06756 31-889 limits assumed): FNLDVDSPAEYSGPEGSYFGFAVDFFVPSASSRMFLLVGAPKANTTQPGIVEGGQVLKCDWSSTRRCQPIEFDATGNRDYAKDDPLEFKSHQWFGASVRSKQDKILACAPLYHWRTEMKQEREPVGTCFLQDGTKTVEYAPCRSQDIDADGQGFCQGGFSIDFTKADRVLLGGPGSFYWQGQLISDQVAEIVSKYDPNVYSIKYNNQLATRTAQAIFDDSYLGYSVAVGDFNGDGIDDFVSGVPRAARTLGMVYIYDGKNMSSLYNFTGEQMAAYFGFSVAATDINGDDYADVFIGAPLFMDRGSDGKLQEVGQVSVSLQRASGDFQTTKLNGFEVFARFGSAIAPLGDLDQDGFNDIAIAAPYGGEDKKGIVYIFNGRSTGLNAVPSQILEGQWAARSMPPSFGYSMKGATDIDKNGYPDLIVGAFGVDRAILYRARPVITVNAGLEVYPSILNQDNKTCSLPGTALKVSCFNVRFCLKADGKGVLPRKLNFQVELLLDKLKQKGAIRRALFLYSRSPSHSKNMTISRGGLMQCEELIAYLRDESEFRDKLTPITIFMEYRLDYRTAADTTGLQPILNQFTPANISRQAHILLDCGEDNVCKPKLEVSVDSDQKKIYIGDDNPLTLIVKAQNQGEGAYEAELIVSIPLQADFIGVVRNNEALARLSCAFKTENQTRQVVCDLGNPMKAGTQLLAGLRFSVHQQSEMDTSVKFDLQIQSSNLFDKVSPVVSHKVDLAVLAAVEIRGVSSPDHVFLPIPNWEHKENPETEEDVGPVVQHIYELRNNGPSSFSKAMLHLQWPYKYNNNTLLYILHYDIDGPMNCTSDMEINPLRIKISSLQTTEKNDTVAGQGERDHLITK
T1 sequence (P06756 891-1048 partner limits assumed): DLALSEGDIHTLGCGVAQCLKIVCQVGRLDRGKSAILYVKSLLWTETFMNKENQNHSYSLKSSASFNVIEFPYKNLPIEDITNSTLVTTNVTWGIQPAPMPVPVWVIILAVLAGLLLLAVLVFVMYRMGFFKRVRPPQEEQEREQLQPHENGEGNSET
T1 sequence (P05106 27-788): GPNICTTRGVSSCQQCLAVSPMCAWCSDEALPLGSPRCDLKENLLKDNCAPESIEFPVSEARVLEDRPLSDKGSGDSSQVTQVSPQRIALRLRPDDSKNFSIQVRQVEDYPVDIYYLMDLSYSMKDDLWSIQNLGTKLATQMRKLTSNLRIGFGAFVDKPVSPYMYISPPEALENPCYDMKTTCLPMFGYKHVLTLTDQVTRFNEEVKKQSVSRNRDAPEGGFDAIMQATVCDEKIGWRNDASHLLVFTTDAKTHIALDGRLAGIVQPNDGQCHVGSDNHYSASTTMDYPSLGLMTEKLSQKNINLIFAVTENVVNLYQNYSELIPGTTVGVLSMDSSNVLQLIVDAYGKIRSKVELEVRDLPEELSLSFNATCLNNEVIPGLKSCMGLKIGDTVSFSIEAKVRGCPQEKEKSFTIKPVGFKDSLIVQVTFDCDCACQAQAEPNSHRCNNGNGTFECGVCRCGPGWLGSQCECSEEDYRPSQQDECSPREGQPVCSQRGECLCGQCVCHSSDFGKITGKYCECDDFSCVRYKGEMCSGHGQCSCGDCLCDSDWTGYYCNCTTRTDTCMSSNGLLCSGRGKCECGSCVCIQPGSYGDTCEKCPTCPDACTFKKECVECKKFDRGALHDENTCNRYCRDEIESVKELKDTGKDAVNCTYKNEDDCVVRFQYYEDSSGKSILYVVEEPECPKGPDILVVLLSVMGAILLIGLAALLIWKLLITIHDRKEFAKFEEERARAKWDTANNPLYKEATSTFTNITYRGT
The experiment in a line: αv/β3-Biotinylated Vitronectin Binding Assay. The settings on record: for pIC50: inhibition of vitronectin binding to purified αv/β3; for Relative Binding Affinity for αv /β3 Relative to GPIIb/IIIa: ratio of IC50 values (GPIIb/IIIa over αv/β3). The text has this: (§1) Compounds may be tested for their ability to block binding of vitronectin to the αv /β3 receptor and to block the binding of fibrinogen to GPIIb/IIIa receptor in the αv /β3 -Biotinylated Vitronectin Binding Assay and GPIIb/IIIa Receptor-Biotinylated Fibrinogen Binding Assay described below.
αv /β3 -Biotinylated Vitronectin Binding Assay
The αv /β3 receptor was isolated from human placental extracts prepared using octylglucoside. The extract was passed over an anti-αv /β3 monoclonal antibody (LM609) affinity column (prepared using LM609 and Affigel 10). The column was subsequently washed extensively at pH 7 and pH 4.5 followed by elution at pH 3. The resulting sample was concentrated by wheat germ agglutinin chromatography to provide a αv /β3 -containing sample which gave two bands on SDS-PAGE which were confirmed as αv /β3 by western blotting.
The affinity purified αv /β3 protein as described above was diluted at different levels and plated to 96 well plates (about 15 ng of αv /β3 protein per well). ELISA detection of αv /β3 -bound biotinylated vitronectin was performed as described below using fixed concentration of biotinylated vitronectin (approximately 80 nM/well). This αv /β3 receptor preparation contains the αv /β3 with no detectable levels of αv /β5 according to the gel and according to effects of blocking antibodies for the αv /β3 or αv /β5 in the ELISA.
A submaximal concentration of biotinylated vitronectin was selected based on concentration response curves with fixed αv /β3 receptor concentration and variable concentrations of biotinylated vitronectin.
The purified αv /β3 receptor is diluted with coating buffer (20 mM Tris HCl, 150 mM NaCl, 2.0 mM CaCl2, 1.0 mM MgCl2.6H2 O, 1.0 mM MnCl2.4H2 O) and coated (100 μL/well) on Costar (3590) high capacity 96-well plates overnight at 4° C. The coating solution is discarded and the plates washed once with blocking/binding buffer (B/B buffer: 50 mM Tris HCl, 100 mM NaCl, 2.0 mM CaCl2, 1.0 mM MgCl2.6H2 O, 1.0 mM MnCl2.4H2 O). The plate-immobilized αv /β3 receptor is then blocked (200 μl/well) with 3.5% BSA in B/B buffer for 2 hours at room temperature. After washing once with 1.0% BSA in B/B buffer, biotinylated vitronectin (100 μL) and either test compound (inhibitor) (11 μL) or B/B buffer w/1.0% BSA (11 μL) is added to each well. The plates are incubated 2 hours at room temperature. The plates are washed twice with B/B buffer and incubated 1 hour at room temperature with anti-biotin alkaline phosphatase (100 μL/well) in B/B buffer containing 1.0% BSA. The plates are washed twice with B/B buffer and alkaline phosphatase substrate (100 μL) is added. Color is developed at room temperature. Color development is stopped by addition of 2N NaOH (25 μL/well) and absorbance is read at 405 nm.
The inhibitory binding constant (Ki) of test agents 30 may be calculated under this assay system using Michaelis-Menten analysis. The IC50 is the concentration of test substance needed to block 50% of the vitronectin binding to the αv /β3 receptor. The IC50 for the inhibition of binding of vitronectin to the αv /β3 receptor was determined based on time averaged values for the inhibition of vitronectin binding. Thus, the inhibition of vitronectin binding for each concentration of test compound was measured every 30 seconds over a 2 hour period and the average value of inhibition of vitronectin binding over such 2 hour period was used for the determination of the IC50.

Another assay relates to Platelet Aggregation. The assay is described as follows: Platelet Aggregation Assay (in vitro, ADP-induced, platelet-rich plasma). The class given is cell-based, mongrel dogs or human. How it is done:
Platelet Aggregation Assay
Venous blood was obtained from anesthetized mongrel dogs or from healthy human donors who were drug-free and aspirin-free for at least two weeks prior to blood collection. Blood was collected into citrated Vacutainer tubes. The blood was centrifuged for 15 minutes at 150× g (850 RPM in a Sorvall RT6000 Tabletop Centrifuge with H-1000 B rotor) at room temperature, and platelet-rich plasma (PRP) was removed. The remaining blood was centrifuged for 15 minutes at 1500× g ([…]) at room temperature, and platelet-poor plasma (PPP) was removed. Samples were assayed on an aggregometer (PAP-4 Platelet Aggregation Profiler), using PPP as the blank (100% transmittance). 200 μL of PRP (5×10^8 platelets/mL) were added to each micro test tube, and transmittance was set to 0%. 20 μl of ADP (10 μM) was added to each tube, and the aggregation profiles were plotted (% transmittance versus time). Test agent (20 μL) was added at different concentrations prior to the addition of the platelet agonist. Results are expressed as % inhibition of agonist-induced platelet aggregation.

Another assay concerns the target T2, GPIIb/IIIa receptor (Homo sapiens, UniProt P05106+P08514).
T2 construct: The GPIIb/IIIa receptor was purified from human platelets; from tissue; host or cells: human platelets (purified according to D'Souza et al., J. Biol. Chem. 1990, 265:3440-3446)
The experiment in a line: GPIIb/IIIa Receptor-Biotinylated Fibrinogen Binding Assay. To be noted: inhibition of fibrinogen binding to purified GPIIb/IIIa.
Text: as §1
GPIIb/IIIa Receptor-Biotinylated Fibrinogen Binding Assay
The GPIIb/IIIa receptor was purified from human platelets according to D'Souza et al. (J. Biol. Chem., 1990, 265:3440-3446). The purified GPIIb/IIIa protein was coated on 96 well plates and the competition between test compound and biotinylated fibrinogen for binding to the plate-immobilized GPIIb/IIIa receptor was determined by ELISA as described below. Bound fibrinogen was detected using an avidin-alkaline phosphatase conjugate and paranitrophenol detection at […]. For IC50 determination, test agent was added at various concentrations to plates coated with purified GPIIb/IIIa protein which was followed by the addition of biotinylated fibrinogen. The inhibitory binding constant (Ki) of test agents were calculated under this assay system using standard Michaelis-Menten analysis. The IC50 is the concentration of test substance needed to block 50% of the fibrinogen binding to the GPIIb/IIIa receptor.
The following reagents may be used in the GPIIb/IIIa-fibrinogen binding ELISA:
purified GPIIb/IIIa (148.8 μg/mL);
biotinylated fibrinogen (~1 mg/mL or 3000 nM);
anti-biotin alkaline phosphatase conjugate (Sigma no. A7418);
flat-bottom, high binding, 96-well plates (Costar Cat. no. 3590);
phosphatase substrate (Sigma 104) (40 mg capsules);
bovine serum albumin (BSA) (Sigma no. A3294);
Alkaline Phosphatase buffer--0.1 M glycine-HCl, 1 mM MgCl2.6H2 O, 1 mM ZnCl2, pH 10.4;
Binding buffer--20 mM Tris-HCl, 150 mM NaCl, 1 mM CaCl2.2H2 O, 0.02% NaN3, pH 7.0;
Buffer A--50 mM Tris-HCl, 100 mM NaCl, 2 mM CaCl2.2H2 O, 0.02% NaN3, pH 7.4;
Buffer A+3.5% BSA (Blocking buffer);
Buffer A+0.1% BSA (Dilution buffer);
The following method steps are used in the GPIIb/IIIa-fibrinogen binding ELISA:
Coat plates with GPIIb/IIIa in Binding buffer (125 ng/100 μL/well) overnight at 4° C. (Leave first column uncoated for non-specific binding). Cover and freeze plates at -70° C. until used. Thaw plate 1 hour at room temperature or overnight at 4° C. Discard coating solution and wash once with 200 μL Binding buffer per well. Block plate 2 hours at room temperature on shaker with 200 μl Buffer A+3.5% BSA (Blocking buffer) per well. Discard Blocking buffer and wash once with 200 μL Buffer A+0.1% BSA (Dilution buffer) per well. Pipet 11 μL of test compound (10× the concentration to be tested in Dilution buffer) into duplicate wells. […] Read plate at 405 nm. Blank against non-specific binding (NSB) well. % Inhibition is calculated as 100-(Test Compound Abs/Total Abs)×100.

Assay [1] has as its system canine thrombosis model (carotid artery). The experiment in a line: Carotid artery reocclusion in canine thrombosis model with tPA. The class given is in vivo. The settings on record: dog carotid. The protocol:
Compounds useful in the method of the present invention are useful for the prevention of reocclusion as an adjunct to fibrinolytic therapy, as shown in the animal model tests described below. The effect of compound A in combination with tPA on the incidence of carotid artery reocclusion in dogs was assessed using a protocol as described by Mousa et al., Circulation 1994, 89:3-12.

Where [2] appears, read: tPA 0.5 mg locally, 1.5 mg IV bolus, compound A 0.1 mg/kg IV bolus + 0.4 mg/kg IV infusion 3 hr, mean ± SD.

T2 sequence (P08514 32-887 limits assumed): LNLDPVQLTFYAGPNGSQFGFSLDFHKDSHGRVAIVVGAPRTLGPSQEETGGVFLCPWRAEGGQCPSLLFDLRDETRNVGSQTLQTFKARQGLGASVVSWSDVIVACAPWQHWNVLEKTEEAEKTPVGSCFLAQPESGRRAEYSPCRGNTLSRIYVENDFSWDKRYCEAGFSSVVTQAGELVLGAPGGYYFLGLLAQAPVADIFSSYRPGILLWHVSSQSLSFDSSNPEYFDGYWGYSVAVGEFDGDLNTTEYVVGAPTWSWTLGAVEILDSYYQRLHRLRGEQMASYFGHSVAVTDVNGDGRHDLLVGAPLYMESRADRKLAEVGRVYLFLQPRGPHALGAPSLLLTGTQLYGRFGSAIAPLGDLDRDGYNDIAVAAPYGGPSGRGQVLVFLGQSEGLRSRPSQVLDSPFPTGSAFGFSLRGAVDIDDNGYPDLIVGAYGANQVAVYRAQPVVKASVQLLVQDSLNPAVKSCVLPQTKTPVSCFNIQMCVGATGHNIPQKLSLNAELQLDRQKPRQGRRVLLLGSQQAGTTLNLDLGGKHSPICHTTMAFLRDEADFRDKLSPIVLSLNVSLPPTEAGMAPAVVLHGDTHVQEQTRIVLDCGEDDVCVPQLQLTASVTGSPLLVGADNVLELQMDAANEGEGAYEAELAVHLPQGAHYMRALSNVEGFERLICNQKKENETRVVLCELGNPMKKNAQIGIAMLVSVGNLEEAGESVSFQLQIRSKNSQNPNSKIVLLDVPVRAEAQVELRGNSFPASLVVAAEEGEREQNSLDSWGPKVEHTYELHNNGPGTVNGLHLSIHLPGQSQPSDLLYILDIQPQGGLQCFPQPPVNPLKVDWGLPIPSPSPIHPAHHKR
T2 sequence (P08514 891-1039 partner limits assumed): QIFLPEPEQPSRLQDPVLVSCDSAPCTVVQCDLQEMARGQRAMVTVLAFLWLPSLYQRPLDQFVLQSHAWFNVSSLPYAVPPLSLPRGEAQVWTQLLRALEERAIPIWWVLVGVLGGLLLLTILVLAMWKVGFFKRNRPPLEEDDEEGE
T2 sequence (P05106 27-788): as the sequence (P05106 27-788) above

As usually defined, the pIC50 is the negative decadic logarithm of the IC50, by convention in mol/L. `N=C(N)NCCC[C@@H]1NC(=O)[C@H](CCCCN)NC(=O)c2cccc(c2)CNC(=O)[C@H](CC(=O)O)NC(=O)CNC1=O` [Compound D, cyclo-(Lys-Arg-Gly-Asp-Mamb)] (cyclo(RGD[3Amb]K)): the negative-log IC50 (pIC50) at αv /β3 receptor was 8.72; in the assay with Platelet Aggregation, 4.64; on GPIIb/IIIa receptor, 6.44. For the same compound, the “Relative Binding Affinity for αv /β3 Relative to GPIIb/IIIa” value at αv /β3 receptor was determined as 189.
In the same order, the values of `CC(C)C[C@@H]1NC(=O)c2cccc(c2)CNC(=O)[C@H](CC(=O)O)NC(=O)CNC(=O)[C@H](CCCNC(=N)N)NC1=O` [Compound E, cyclo-(Leu-Arg-Gly-Asp-Mamb)] (cyclo(RGD[3Amb]L)) are 8.85, 4.39, 6.37 and 307.
Regarding “tPA: tissue plasminogen activator, thrombolytic agent”, in assay [1] (basal, tPA with or without compound A, mean ± SD), the “Blood Flow, Basal” value came out at 30 ± 2.5 cm/s. Further, the “Blood Flow, End” value in assay [1] (end, tPA with or without compound A) was found to be 0 cm/s. The “Blood Flow, Reperfusion” value in assay [1] (reperfusion, tPA with or without compound A, mean ± SD) amounted to 24.2 ± 8 cm/s. In addition, in assay [1] (setting [2]), the “Thrombus Weight (wet, mg)” value turned out to be 36.2 ± 19.4 mg; the “Time to Occlusion” value is 80 ± 25 min; the “Time to Reocclusion” value stood at 23 ± 10 min; the “Time to Reperfusion” value turned out to be 15 ± 10 min.
